The values below come from US20030013658A1, “Small peptides and methods for treatment of asthma and inflammation” (Hisatek, LLC, priority 1997, published 2003).

This test deals with OVA-sensitized/challenged mice. The experiment in a line: OVA-induced bronchial asthma mouse model (Standard/Resolution protocols, 1-3 month), airway eosinophils and mucus plugs. In kind it is in vivo. An excerpt:
The OVA-induced Bronchial Asthma Mouse Model for Inhibition of Mast Cell Degranulation
Reagents: Crystalline OVA was obtained from Pierce Chem. Co. (Rockford, Ill.) aluminum potassium sulfate (alum) from Sigma Chem. Co. (St. Louis, Mo.), pyrogen-free distilled water from Baxter, Healthcare Corporation (Deerfield, Ill.), 0.9% sodium chloride (normal saline) from Lymphomed (Deerfield, Ill.) and Trappsol™ HPB-L100 (aqueous hydroxypropyl beta cyclodextrin; 45 wt/vol % aqueous solution) from Cyclodextrin Technologies Development, Inc. (Gainesville, Fla.). The OVA (500 μg/ml in normal saline) was mixed with equal volumes of 10% (wt/vol) alum in distilled water. The mixture (pH 6.5 using 10 N NaOH) after incubation for 60 minutes at room temperature underwent centrifugation at 750 g for 5 minutes; the pellet was resuspended to the original volume in distilled water and used within one hour.
The selective 5-lipoxtgenase inhibitor, Zileuton (N-[1-benzo[b]thien-2-ylethyl]-N-hydroxyurea; J. Pharmacol Exp Ther. 1991; 256: 929-937), was kindly provided by Drs. Bell and George W. Carter (Abbott Laboratories, Abbott Part, Ill.). Zileuton was dissolved in Trappsol.™. Histatek, Inc. (Seattle, Wash.) provided the mast cell degranulation inhibitor, f-Met-Leu-Phe-Phe (“HK-X”).
Female BALB/c […] (6-8 wk of age at purchase; D and K, Seattle Wash.) were housed under conventional conditions for the studies.
Allergen Immunization/Challenge Protocols: Mice received an i.p. injection of 0.2 ml (100 μg) of OVA with alum on the different protocols of Standard (FIG. 5A) and Resolution (FIG. 5B) (J. Exp Med. 1996; 184: 1483-1494). According to the different protocols, mice were anesthetized with 0.2 ml i.p. of ketamine (0.44 mg/ml)/xylazine (6.3 mg/ml) in normal saline before receiving an intranasal (i.n.) does of 100 μg OVA in 0.05 ml normal saline and an i.n. dose of 50 μg OVA in 0.05 ml normal saline separately on different days. Two control groups were used. Accordingly, the first group received normal saline with alum i.p. and normal saline without alum i.n.; the second group received OVA with alum i.p., OVA without alum i.n., and normal saline, alone.
The trachea and left lung (the right lung is used for bronchoalveolar lavage (“BAL”)) were obtained and fixed in 10% neutral formaldehyde solution at room temperature for 6˜15 h. After being embedded in paraffin, the tissues were cut into 5-um sections and processed with the different staining or immunolabling further. Discombe's eosinophil staining was used for counting the cell numbers with the counterstain of methylene blue. The eosinophil number per unit airway area (2,200 μm^2) was determined by morphometry (J. Pathol. 1992; 166: 395-404; Am Rev Respir Dis. 1993; 147:448-456). Fibrosis was identified with the Masson's trichrome staining. Airway mucus was identified by the following staining method: methylene blue, hematoxylin and eosin, mucicarmine, alcian blue, and alcian blue/periodic acid-Schiff (PAS) reaction (Troyer, H., “Carbohydrates” in Principles and Techniques of Histochemistry, Little, Brown and Company, Boston, Mass., 1980: 89-121; Sheehan, D. C., et al., “Carbohydrates” in Theory and Practice of Histotechnology, Battle Press, Columbus, Ohio, 1980: 159-179) Mucin was stained with mucicarmine solution; metanil yellow counterstain was employed. Acidic mucin and sulfated mucosubstances were stained with alcian blue, pH 2.5; nuclear fast red counterstain was used. Neutral and acidic mucosubstances were identified by alcian blue, pH 2.5, and PAS reaction. The degree of mucus plugging of the airways (0.5-0.8 mm in diameter) was also assessed by morphometry. The percent occlusion of airway diameter by mucus was classified on a semiquantitative scale from 0 to 4+ as described in Figure Legends. The histologic and morphometric analyses were performed by individuals blinded to the protocol design. […]

“Also recorded” adds a separate entry of the source. Where no end group is shown, it is not given here. The star is where a group is joined. For = O=C*

On to “f-Met-Leu-Phe-Phe (For-MLFF) [Example 9]”, for which, for the setting “1 month”, the “AIRWAY INFLUX OF EOSINOPHILS (%)” value came out at 14.20%. Besides, for the setting “28 days”, the “% of plug of airway” value was found to be 19%. Also, where the note is “28 days of treatment”, the “PERCENTAGE OF EOSINOPHILS IN AIRWAY TISSUE” value turned out to be 14.2%. Also, the “MUCUS PLUG SCORE IN AIRWAYS” value (28 days, semiquantitative scale 0 to 4+) is 1.4. In addition, the “mucus accumulation / mucus release in airway” value (HK-X given before i.n. OVA, morphometry, FIG. 6, listed as HK-X) is reported as “inhibits mucus accumulation in the airway; also recorded: airway mucus release in the airway (AW) lumen is markedly reduced”. The “infiltration of the interstitial tissue by eosinophils” value (compared to OVA-challenge alone, FIG. 6C) is recorded as “infiltration of the interstitial tissue by eosinophils is also reduced”. In addition, the “formation of mucus plugs / mucus production in small airways” value (doses of 5 μg/kg and 10 μg/kg, FIG. 7) is “Both doses significantly reduce the mucus production in small airways”. Besides, the “reduction of airway eosinophils compared with Zileuton” value runs as follows: (one month) “reduced eosinophils comparably at one month”; (two and three months) “much more beneficially at two and three months”.
